Measured values as given in patent US11590102B2, “Anti-methanogenic lovastatin analogs or derivatives and uses thereof” (CEDARS-SINAI MEDICAL CENTER, priority 2015, dated 2023).

These compounds were tested on methane production in human stool (assay: Methane production in human stool homogenates of IBS-C patients (head gas analysed by gas chromatography)). Settings: stool homogenates of methane-producing human IBS-C patients, anaerobic chamber; 0.5, 1, 5 and 10 mg of statin per g of stool; head gas at baseline, 90 minute intervals for 3 hours and overnight (~720 min); FIG. 4.
Type: cell-based
Experimental: Fresh stool samples were provided by two methane-producing human IBS-C patients (breath methane>10 ppm) who had provided an informed consent. Different concentrations of stool from each patient were homogenized in deoxygenated PBS (3 ml PBS/2 g stool) inside an anaerobic incubation chamber. Plead gas was extracted through a stopcock at various timepoints ([…], and following overnight incubation) and methane levels in the head gas at each timepoint were analyzed by gas chromatography using a Quintron SC gas chromatograph (Quintron Instrument Company, Milwaukee, Wis.).
The effects of lovastatin lactone, lovastatin ß-hydroxyacid and lovastatin diol on methane production were evaluated by incubating various concentrations of these molecules (0 mg, 0.5 mg, 1 mg, 5 mg and 10 mg of statin per g of human stool) with human stool homogenates in an anaerobic chamber as described above. Plead gas samples were drawn from each flask for methane analysis at baseline and at 90 minute intervals for 3 hours, followed by a final sample after overnight incubation (˜720 min).
For `C[C@H]1C=C2C=C[C@H](C)[C@H](CCC3C[C@@H](O)CC(=O)O3)[C@H]2[C@@H](O)C1` (stereo partly drawn) [lovastatin diol lactone], the “inhibition of methane production in human stool” value (shortened to “inhibition of methane production”) was “effective inhibitors of methane production”. With `CC[C@H](C)C(=O)O[C@H]1C[C@@H](C)C=C2C=C[C@H](C)[C@H](CC[C@@H]3C[C@@H](O)CC(=O)O3)[C@H]21` [Lovastatin lactone, lovastatin lactone] the “inhibition of methane production” value was “effective inhibitors of methane production”. In the case of `CC[C@H](C)C(=O)O[C@H]1C[C@@H](C)C=C2C=C[C@H](C)[C@H](CC[C@@H](O)C[C@@H](O)CC(=O)O)[C@H]21` [lovastatin R-hydroxyacid, lovastatin ß-hydroxyacid], the “inhibition of methane production” value is reported as “ineffective as an inhibitor of methane production”.
